Columns and labels:
[1] = system: monkey arteriovenous shunt model; settings: preclinical; cited from earlier work
[2] = system: rabbit abdominal incision bleeding model; settings: in combination with clopidogrel; cited from earlier work
[3] = system: activated partial thromboplastin time (aPTT); assay: activated partial thromboplastin time; assay type: in vivo, human
[4] = plasma pharmacokinetics in first‐in‐human study; assay type: in vivo; settings: for Tmax: human, plasma
[5] = molecular target: factor XI coagulation activity (FXI:C) (Homo sapiens, UniProt P03951); assay: factor XI coagulation activity; assay type: in vivo
Sequence of factor XI coagulation activity (FXI:C) (P03951 388-625 limits assumed): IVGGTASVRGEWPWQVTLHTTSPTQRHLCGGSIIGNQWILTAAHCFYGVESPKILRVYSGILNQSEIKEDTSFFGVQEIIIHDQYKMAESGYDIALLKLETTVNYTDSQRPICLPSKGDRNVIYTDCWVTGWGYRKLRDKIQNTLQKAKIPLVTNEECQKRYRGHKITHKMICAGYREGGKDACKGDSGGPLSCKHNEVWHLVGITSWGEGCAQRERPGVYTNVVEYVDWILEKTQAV
Sequence of factor XI coagulation activity (FXI:C) (P03951 19-387 partner limits assumed): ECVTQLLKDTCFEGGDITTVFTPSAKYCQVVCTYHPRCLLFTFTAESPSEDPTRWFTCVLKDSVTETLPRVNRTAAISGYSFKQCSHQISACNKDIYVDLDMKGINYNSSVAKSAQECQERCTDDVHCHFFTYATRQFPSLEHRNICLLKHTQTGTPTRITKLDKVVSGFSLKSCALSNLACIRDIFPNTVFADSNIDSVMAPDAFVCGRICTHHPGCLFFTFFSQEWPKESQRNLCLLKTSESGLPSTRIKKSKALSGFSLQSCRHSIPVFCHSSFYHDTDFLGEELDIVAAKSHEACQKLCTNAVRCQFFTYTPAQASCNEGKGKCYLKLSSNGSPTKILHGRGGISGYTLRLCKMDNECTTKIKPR

[6] = system: FXa, FIXa, FXIIa, FVIIa, thrombin, tPA, urokinase and plasmin; settings: cited from earlier work
[7] = system: prothrombin time [PT], international normalised ratio [INR]; assay: prothrombin time; assay type: in vivo, human; settings: any of the dose levels tested in Part A or Part B
human FXIa = settings: competitive and reversible inhibition; cited from earlier work
[8] = system: monkey nail‐cut bleeding model; settings: preclinical; cited from earlier work
[9] = Part A, single dose 1 mg, fasted
[10] = Part A, single dose 5 mg, fasted
[11] = Part A, single dose 20 mg, fasted
[12] = Part A, single dose 80 mg, fasted
[13] = Part A, single dose 150 mg, fasted
[14] = Part A, single dose 300 mg, fasted
[15] = Part A, single dose of 20–300 mg
[16] = Part B, 80 mg QD for 14 days, fed
[17] = Part B, 150 mg QD for 14 days, fed
[18] = Part B, first dose of 80, 150 and 250 mg

time of peak mean plasma concentration post‐dose ([4]; Part A, 80 mg fed cohort): approximately 8 hours
fold increase of AUCinf with a 300‐fold increase in dose ([4]; Part A, 1–300 mg): ~416 fold
fold increase of Cmax with a 300‐fold increase in dose ([4]; Part A, 1–300 mg): about 308 fold
time of peak mean plasma concentration post‐dose ([4]; Part A, each cohort except 80 mg fed): approximately 4 hours
AUC24 accumulation GM ratio Day 14 versus Day 1 ([4]; Part B, 80 mg QD): 2.33
Cmax accumulation GM ratio Day 14 versus Day 1 ([4]; Part B, 80 mg QD): 1.88
AUC24 accumulation GM ratio Day 14 versus Day 1 ([4]; Part B, 150 mg QD): 2.22
Cmax accumulation GM ratio Day 14 versus Day 1 ([4]; Part B, 150 mg QD): 1.90
AUC24 accumulation GM ratio Day 14 versus Day 1 ([4]; Part B, 250 mg QD): 2.41
Cmax accumulation GM ratio Day 14 versus Day 1 ([4]; Part B, 250 mg QD): 2.09
fold increase of AUC24 with a 3.1‐fold increase in dose ([4]; Part B, 80–250 mg QD, Day 14): approximately 3.6 fold
fold increase of Cmax with a 3.1‐fold increase in dose ([4]; Part B, 80–250 mg QD, Day 14): approximately 3.6 fold
time for plasma concentrations to decrease to baseline levels ([4]; Part B, after final dose on Day 14): ≤ 72 h
time to reach steady state ([4]; Part B, daily dosing): ≤ 6 days
Tmax ([4]; oral, median range across cohorts, Part A, fasted cohorts): 2.5 to 4 h
Tmax ([4]; oral, median range across cohorts, Part B, Day 1): 2.5 to 4 h
Tmax ([4]; oral, median range across cohorts, Part B, Day 14): 4 to 4.01 h
Tmax ([4]; po, 1 mg, median (range), Part A, single dose 1 mg, fasted): 2.5 h
Tmax ([4]; po, 5 mg, median (range), Part A, single dose 5 mg, fasted): 3.5 h
Tmax ([4]; po, 80 mg, median (range), Part A, single dose 80 mg, fed): 7.05 h
Tmax ([4]; po, 80 mg, median (range), Part B, 80 mg QD fed, Day 1): 2.5 h
Tmax ([4]; po, 80 mg, median (range), Part B, 80 mg QD fed, Day 14): 4.01 h
Tmax ([4]; po, 150 mg, median (range), Part B, 150 mg QD fed, Day 1): 4 h
Tmax ([4]; po, 150 mg, median (range), Part B, 150 mg QD fed, Day 14): 4.01 h
Tmax ([4]; po, 250 mg, median (range), Part B, 250 mg QD fed, Day 1): 4 h
Tmax ([4]; po, 250 mg, median (range), Part B, 250 mg QD fed, Day 14): 4 h
time of maximal inhibition of FXI:C post‐dose ([5]; Part A, 80 mg fed group): approximately 8 hours
time of return of FXI:C and aPTT to near baseline levels post‐dose ([5]; Part A, 80, 150 and 300 mg): ≤ 72 h
time the effects on FXI:C and aPTT were maintained ([5]; Part A, 80, 150 and 300 mg): up to 24 hours
FXI:C Day 1 24 hours RTB, mean ± SD [5, 9]: 0.95 ± 0.141
FXI:C Day 1 24 hours inhibition, mean ± SD [5, 9]: 5 ± 14.1%
FXI:C Maximum on treatment inhibition, mean ± SD [5, 9]: 13 ± 7.7%
FXI:C Day 1 24 hours RTB, mean ± SD [5, 10]: 0.95 ± 0.049
FXI:C Day 1 24 hours inhibition, mean ± SD [5, 10]: 5 ± 4.9%
FXI:C Maximum on treatment inhibition, mean ± SD [5, 10]: 10 ± 2.6%
FXI:C Minimum on treatment RTB, mean ± SD [5, 10]: 0.90 ± 0.026
FXI:C Day 1 24 hours RTB, mean ± SD [5, 11]: 0.95 ± 0.185
FXI:C Day 1 24 hours inhibition, mean ± SD [5, 11]: 5 ± 18.5%
FXI:C Maximum on treatment inhibition, mean ± SD [5, 11]: 29 ± 4.8%
FXI:C Minimum on treatment RTB, mean ± SD [5, 11]: 0.71 ± 0.048
FXI:C Day 1 24 hours RTB, mean ± SD [5, 12]: 0.61 ± 0.051
FXI:C Day 1 24 hours inhibition, mean ± SD [5, 12]: 39 ± 5.1%
FXI:C Maximum on treatment inhibition, mean ± SD [5, 12]: 69 ± 7.0%
FXI:C Minimum on treatment RTB, mean ± SD [5, 12]: 0.31 ± 0.070
FXI:C Day 1 24 hours RTB, mean ± SD ([5]; Part A, single dose 80 mg, fed): 0.61 ± 0.066
FXI:C Day 1 24 hours inhibition, mean ± SD ([5]; Part A, single dose 80 mg, fed): 39 ± 6.6%
FXI:C Maximum on treatment inhibition, mean ± SD ([5]; Part A, single dose 80 mg, fed): 54 ± 8.9%
FXI:C Minimum on treatment RTB, mean ± SD ([5]; Part A, single dose 80 mg, fed): 0.46 ± 0.089
FXI:C Day 1 24 hours RTB, mean ± SD [5, 13]: 0.48 ± 0.057
FXI:C Maximum on treatment inhibition, mean ± SD [5, 13]: 78 ± 3.4%
FXI:C Minimum on treatment RTB, mean ± SD [5, 13]: 0.22 ± 0.034
FXI:C Day 1 24 hours RTB, mean ± SD [5, 14]: 0.26 ± 0.089
FXI:C Day 1 24 hours inhibition, mean ± SD [5, 14]: 74 ± 8.9%
time of maximal inhibition of FXI:C post‐dose [5, 15]: approximately 4 hours
FXI:C Minimum on treatment RTB, mean ± SD [5, 16]: 0.25 ± 0.077
FXI:C Day 1 24 hours RTB, mean ± SD ([5]; Part B, 80 mg QD, fed): 0.67 ± 0.035
FXI:C Day 14 24 hours RTB, mean ± SD ([5]; Part B, 80 mg QD, fed): 0.39 ± 0.111
FXI:C Minimum on treatment RTB, mean ± SD [5, 17]: 0.15 ± 0.052
FXI:C Day 1 24 hours RTB, mean ± SD ([5]; Part B, 150 mg QD, fed): 0.48 ± 0.112
FXI:C Day 14 24 hours RTB, mean ± SD ([5]; Part B, 150 mg QD, fed): 0.27 ± 0.096
FXI:C Day 1 24 hours RTB, mean ± SD ([5]; Part B, 250 mg QD, fed): 0.33 ± 0.065
FXI:C Day 14 24 hours RTB, mean ± SD ([5]; Part B, 250 mg QD, fed): 0.14 ± 0.053
time of maximal inhibition of FXI:C post‐dose [5, 18]: approximately 4 hours
Structure (SMILES): Nc1ccc(-c2nc([C@H]3CCc4cc(-c5cc(Cl)ccc5-n5cnnn5)cc(=O)n43)c(F)[nH]2)c(F)n1 [ONO‐7684]
thrombus formation [1]: significantly inhibited thrombus formation
bleeding risk compared with rivaroxaban [2]: lower bleeding risk than rivaroxaban
time of maximal prolongation of aPTT post‐dose ([3]; Part A, 80 mg fed group): approximately 8 hours
aPTT Day 1 24 hours RTB, mean ± SD [3, 9]: 1.00 ± 0.034
aPTT Day 1 24 hours RTB, mean ± SD [3, 10]: 1.10 ± 0.061
aPTT Maximum on treatment RTB, mean ± SD [3, 10]: 1.18 ± 0.054
aPTT Day 1 24 hours RTB, mean ± SD [3, 11]: 1.15 ± 0.119
aPTT Maximum on treatment RTB, mean ± SD [3, 11]: 1.40 ± 0.016
aPTT Day 1 24 hours RTB, mean ± SD [3, 12]: 1.54 ± 0.111
aPTT Maximum on treatment RTB, mean ± SD [3, 12]: 1.83 ± 0.172
aPTT Day 1 24 hours RTB, mean ± SD ([3]; Part A, single dose 80 mg, fed): 1.61 ± 0.128
aPTT Maximum on treatment RTB, mean ± SD ([3]; Part A, single dose 80 mg, fed): 1.74 ± 0.163
aPTT Day 1 24 hours RTB, mean ± SD [3, 13]: 1.63 ± 0.031
aPTT Maximum on treatment RTB, mean ± SD [3, 13]: 1.97 ± 0.078
aPTT Day 1 24 hours RTB, mean ± SD [3, 14]: 1.99 ± 0.139
time of maximal prolongation of aPTT post‐dose [3, 15]: approximately 4 hours
aPTT Maximum on treatment RTB, mean ± SD [3, 16]: 2.07 ± 0.152
aPTT Day 1 24 hours RTB, mean ± SD ([3]; Part B, 80 mg QD, fed): 1.53 ± 0.119
aPTT Day 14 24 hours RTB, mean ± SD ([3]; Part B, 80 mg QD, fed): 1.87 ± 0.163
aPTT Maximum on treatment RTB, mean ± SD [3, 17]: 2.35 ± 0.275
aPTT Day 1 24 hours RTB, mean ± SD ([3]; Part B, 150 mg QD, fed): 1.78 ± 0.174
aPTT Day 14 24 hours RTB, mean ± SD ([3]; Part B, 150 mg QD, fed): 2.06 ± 0.261
aPTT Day 1 24 hours RTB, mean ± SD ([3]; Part B, 250 mg QD, fed): 2.06 ± 0.091
aPTT Day 14 24 hours RTB, mean ± SD ([3]; Part B, 250 mg QD, fed): 2.53 ± 0.146
time of maximal aPTT prolongation post‐dose [3, 18]: approximately 4 hours
selectivity for FXIa relative to other coagulation/fibrinolysis factors [6]: highly selective for FXIa
effect on INR [7]: did not significantly affect
effect on PT [7]: did not significantly affect
Ki (human FXIa): 2 nM
bleeding time [8]: did not prolong bleeding time

Reference: PMC8359378 (British Journal of Clinical Pharmacology, 2021)
